In patent US5432172A, “Biological applications of alkaloids derived from the tunicate Eudistoma sp” (The Research Foundation of State University of New York, priority 1993, dated 1995):
Read-outs that look alike come from different tables or passages of the source.

Tests used:
pyruvate kinase = assay: Pyruvate kinase activity in cultured rat hepatoma FAO cells; type: cell-based; details: for Km: control 0.14, read-out: Km for the substrate phosphoenolpyruvate (PEP); for inhibition of pyruvate kinase activity: submaximal substrate concentrations; for rise in the Km for substrate (phosphoenolpyruvate): versus control
Experimental: FIG. 11 is a graph showing the effects of the Eudistoma alkaloids on pyruvate kinase activity in cultured rat hepatoma FAO cells. Enzyme activity v/Vmax was assayed as described in Example IV in partially purified extracts from cells incubated for 1 h in the absence ( ) or presence of 100 μM CPT-cAMP (.cndot.) and 26 μM segoline A ( ) as a function of substrate concentrations (phosphoenolpyruvate, PEP).
1. Activity of pyruvate kinase--a key glycolytic enzyme whose activity is inhibited by cAMP-dependent phosphorylation.
FIG. 11 is a graph showing the effects of the Eudistoma alkaloids on pyruvate kinase activity in cultured rat hepatoma FAO cells. Enzyme activity v/Vmax was assayed in partially purified extracts from cells incubated for 1 h in the absence (squares) or presence of 100 μM 8-(4-chlorophenylthio) cyclic AMP (CPT-cAMP)-CPT-cAMP (circles) and 26 μM Segoline A (triangles) as a function of substrate concentrations (phosphoenolpyruvate, PEP).

[1] = system: normal hamster fibroblast NIL8 cell line; assay: Growth and morphology of normal NIL8 fibroblast cells; type: cell-based; details: 12.8 μM Debromoshermilamine, 5 days, single application
Experimental: Cells were grown for 5 days in the absence of drugs (A), and in the presence of 25 μM forskolin (B), 1.4 μM Eilatin (C), or 12.8 μM Debromoshermilamine (D). […]
As illustrated, a single application of 1.4 μM Eilatin or 12.8 μM Debromoshermilamine to NIL8 cells produced effects which are strikingly similar to those obtained by chronically treating time cells with agents that elevate or mimic cAMP. […] This predilection towards cancer cells is a very desirable property in developing potential drugs for the treatment of cancer.

PEPCK mRNA = assay: Levels of PEPCK mRNA in FTO-2B rat hepatoma cells (Northern blot); type: cell-based; details: segoline A 5, 26 and 52 μM; Debromoshermilamine 2.6, 12.8 and 38.4 μM; 4 hours
Experimental: FIG. 12 is a graph showing the effects of Eudistoma alkaloids on levels of PEPCK mRNA in FTO-2B rat hepatoma cells. The cells were exposed for 4 hours to serum-free medium which contained: 5 μM CPT-cAMP (lane 1), 5, 26 and 52 μM segoline A (lanes 2-4), 2.6, 12.8 and 38.4 μM Debromoshermilamine (lanes 5-7) or to serum-free medium alone (lane 8).
2. Induction of mRNA for P-enolpyruvate carboxykinase (PEPCK)--a key enzyme in the gluconeogenesis pathway in liver and kidney cells whose gene transcription rate is stimulated by cAMP see Hod et al., N.Y. Acad. Sci., 478, 31-45 (1986) and Hod et an., J. Biol. Chem., 263, 7747-7752 (1988).
FIG. 12 is a graph showing the effects of Eudistoma alkaloids on levels of PEPCK mRNA in FTO-2B rat hepatoma cells. The cells were exposed to medium which contained: 5 μM 8-CPT-cAMP, 5, 26 and 52 μM Segoline A, 2.6, 12.8 and 38.4 μM Debromoshermilamine or to control medium. The level of mRNA was determined by Northern blot analysis according to Hod et al., J. Biol. Chem., 259, 15603-15608 (1984) using the plasmid pPCK10rc as a hybridization probe, and quantified by densitometric scanning of the autoradiograms which is shown on the left.

[2] = system: neuroblastoma N1E-115 cells; assay: Growth and morphological differentiation of mouse neuroblastoma N1E-115 cells; details: for range of effective concentrations that inhibited cell proliferation and induced morphological differentiation / effects on cell appearance: N1E-115 cells; for range of effective concentrations that inhibited cell proliferation and induced morphological differentiation: below range no noticeable effect, above range cytotoxic; for effects on cell appearance: morphology; for most effective concentration for the cells tested: summary, cells tested in the present invention
Experimental: A,B: Untreated cells, 3 (A) and 8 (B) days after subculture. C,D: Cells grown for 3 (C) and 8 (D) days with 12.8 μM Debromoshermilamine. E,F: Cells grown for 7 days with Isosegoline A (39 μM) and Norsegoline (16.3 μM), respectively.
A,B: Untreated cells 3 (A) and 6 (B) days after subculture. C,D: Cells grown for 3 (C) and 6 (D) days with 50 μM forskolin. E,F: Cells grown for 3 (E) and 6 (F) days with 39 μM Segoline A. G,H: Cells grown for 3 (G) and 6 (H) days with 0.14 μM Eilatin.
Cells were grown for six days in the absence of drugs (A), or in the presence of: 10 μM 4-methylpyrido[2,3,4-kl]acridine (B), 4 μM pyrido[2,3,4-kl]acridine (C), 0.08 μM Eilatin (D), 75 μM forskolin (E).
The inventors chose the neuroblastoma N1E-115 cells because these tumor-derived cells can be induced to express characteristic neuronal properties by a variety of procedures see Spector, "Electrophysiology of clonal nerve cell lines. In: Excitable Cells in Tissue Culture", Nelson et al. eds., Plenum, New York 247-277 (1981) and can serve as a useful experimental system in which to explore the effects of the Eudistoma alkaloids on the biological properties of both cancer cells and neuronal cells.
The N1E-115 cells were exposed to various concentrations of the six (6) natural products shown in FIG. 1, and of the two synthetic pyridoacridines shown in Scheme III of FIG. 2. […] A,B: Untreated cells, 3 (A) and 8 (B) days after subculture. C,D: Cells grown for 3 (C) and (8) days with 12.8 μM Debromoshermilamine. E,F: Cells grown for 7 days with Isosegoline A (39 μM) and Norsegoline (16.3 μM), respectively. FIG. 5 illustrates the appearance of N1E-115 cells 6 days after replating in the absence (A) and in the presence of 10 μM 4-methylpyrido[2,3,4-kl]acridine (B), or 4 μM pyrido[2,3,4-kl]acridine.

[3] = system: rat anterior pituitary cells; assay: Secretion of growth hormone (GH) from dispersed rat anterior pituitary cells; type: cell-based; details: 3 h; increasing concentrations
Source text: FIG. 13 is a graph showing the effects of Debromoshermilamine on the secretion of growth hormone (GH) from dispersed rat anterior pituitary cells. Each bar represents the mean ±s.e.m of four wells.
3. Growth hormone release from anterior pituitary cells which is stimulated by a number of hormonal factors that activate the adenylyl cyclase system and elevate cellular cAMP levels, see, Bilezikjian et al., Endocrinology, 113, 1726-1731 (1983); Ray et al., Mol. Cell. Endocrinology, 45, 175-182 (1986) and Gabriel et al., Neuroendocrinology, 50 170-176 (1989).
FIG. 13 is a graph showing the effects of debromoshermilamine on the secretion of growth hormone (GH) from dispersed rat anterior pituitary cells. Cells grown in 24-well multiwell plates were incubated for 3 h in fresh medium (DME) in the absence (control) or presence of 1 mM DbcAMP, and increasing concentrations of Debromoshermilamine as indicated. Hormone secretion was measured using rat GH radioimmunoassay. Each bar represents the mean ±s.e.m of four wells.

Compound | Km (pyruvate kinase; concentration of alkaloid not given) [µM] | inhibition of pyruvate kinase activity (pyruvate kinase) | rise in the Km for substrate (phosphoenolpyruvate) (pyruvate kinase) | effect on cell shape of NIL8 cells [1] | effect on growth of NIL8 cells [1] | induction of PEPCK mRNA (PEPCK mRNA) | range of effective concentrations that inhibited cell proliferation and induced morphological differentiation [2] | effects on cell appearance [2] | most effective concentration for the cells tested [2] [µM] | growth hormone release [3] | Km (pyruvate kinase; 26 μM segoline A, 1 h) [µM] | effect on cell division and morphological differentiation ([2]; 39 μM Segoline A, 3 days, single application) | long-term effect on cell division ([2]; 39 μM Segoline A, 6 days, single application)
CC(=O)NCCc1c2c(c3nccc4c3c1Nc1ccccc1-4)NC(=O)CS2 [Debromoshermilamine] | 460 | inhibit pyruvate kinase activity | ca. 3 fold | flatter | growth was inhibited | stimulate the induction of PEPCK mRNA in a dose-dependent manner | 6-32 μM | a large proportion of very flat cells of considerable size and relatively few neurites | 6 to 32 | stimulate growth hormone release, again, in a dose-dependent manner | – | – | –
COc1cc2c3c4c(ccnc14)-c1ccccc1N3C1(C)C(=O)NC(=O)C2C1C (stereo not shown) [Segoline A] | – | inhibit pyruvate kinase activity | ca. 3 fold | – | – | stimulate the induction of PEPCK mRNA in a dose-dependent manner | 12-52 μM | flattened cell bodies as well as numerous long neurites | 12 to 52 | – | 440 | inhibited cell division and induced morphological differentiation | cell division is completely blocked
